In ChEMBL document CHEMBL1150840, “Onnamide F: a new nematocide from a southern Australian marine sponge, Trachycladus laevispirulifer” (2001) one finds LD99, Activity and inhibition data, which are given here for two compounds.

The source made the active and inactive calls. The rule behind the calls is not given here.

The subject of experiment [1] is Haemonchus contortus. Description: Nematocidal activity against Haemonchus contortus. The experiment is classed as functional.
The test system of experiment [2] is Saccharomyces cerevisiae. Description: Antifungal activity against Saccharomyces cerevisiae. The experiment is classed as functional.
The subject of experiment [3] is Bacillus subtilis. Kind of experiment: Antibacterial activity against Bacillus subtilis. The experiment is classed as functional, organism-based.
Experiment [4] deals with Escherichia coli. Description: Antibacterial activity against Escherichia coli. The experiment is classed as functional, organism-based.
Experiment [5] deals with Haemonchus contortus. Kind of experiment: Nematocidal activity against Haemonchus contortus assessed as inhibition of larval development at L1 stage at high concentration. It counts as functional, organism-based.

On to `C=C1C[C@](OC)([C@H](O)C(=O)N[C@@H](OC)[C@@H]2C[C@@H](OC)C(C)(C)[C@@H](CC(O)CCC/C=C/C=C/C(=O)OC)O2)O[C@H](C)[C@@H]1C` (some centres not stated) [ONNAMIDE F METHYL ESTER], for which the LD99 in experiment [1] is 2.6 µg/mL; in experiment [2] it was 5.2 µg/mL.

On to `C=C1C[C@](OC)([C@H](O)C(=O)N[C@@H](OC)[C@@H]2C[C@@H](OC)C(C)(C)[C@@H](CC(O)CCC/C=C/C=C/C(=O)O)O2)O[C@H](C)[C@@H]1C` (some centres not stated) [ONNAMIDE F], for which the LD99 in experiment [1] amounted to 5.2 µg/mL; in experiment [2] it was 1.4 µg/mL. The result in experiment [3] and in experiment [4] was inactive. Besides, the inhibition entry in experiment [5] is “Active”.
